According to patent US9617271B2, “Triazolo compounds” (Hoffmann-La Roche Inc., priority 2012, dated 2017):

These molecules were tested against human PDE10A (Homo sapiens (Human), UniProt Q9Y233) (assay: human PDE10A full length assay ([3H]-cGMP SPA)). Settings: human PDE10A full length enzyme, 50 nM cGMP + 50 nM [3H]-cGMP, 20 minutes at room temperature; read-out: PDE10A inhibition IC50.
Format: biochemical
Experimental: The human PDE10A full length assay was performed in 96-well micro titer plates. The reaction mixture of 50 μl contained 20 mM HEPES pH=7.5/10 mM MgCl2/0.05 mg/ml BSA (Sigma cat. #A-7906), 50 nM cGMP (Sigma, cat. #G6129) and 50 nM [3H]-cGMP (GE Healthcare, cat. #TRK392 S.A. 13.2 Ci/mmol), 3.75 ng/well PDE10A enzyme (Enzo Life Science, Lausen, Switzerland cat #SE-534) with or without a specific test compound. A range of concentrations of the potential inhibitor was used to generate data for calculating the concentration of inhibitor resulting in 50% of the effect (e.g. IC50, the concentration of the competitor inhibiting PDE10A activity by 50%). Non-specific activity was tested without the enzyme. The reaction was initiated by the addition of the substrate solution (cGMP and [3H]-cGMP) and allowed to progress for 20 minutes at room temperature. The reaction was terminated by adding 25 μl of YSi-SPA scintillation beads (GE Healthcare, cat. #RPNQ0150) in 18 mM zinc sulphate solution (stop reagent). After 1 h under shaking, the plate was centrifuged one minute at 170 g to allow beads to settle. Afterwards, radioactive counts were measured on a Perkin Elmer TopCount Scintillation plate reader.

Sequence of human PDE10A (Q9Y233 other isoform, or with tags, fused parts or gaps): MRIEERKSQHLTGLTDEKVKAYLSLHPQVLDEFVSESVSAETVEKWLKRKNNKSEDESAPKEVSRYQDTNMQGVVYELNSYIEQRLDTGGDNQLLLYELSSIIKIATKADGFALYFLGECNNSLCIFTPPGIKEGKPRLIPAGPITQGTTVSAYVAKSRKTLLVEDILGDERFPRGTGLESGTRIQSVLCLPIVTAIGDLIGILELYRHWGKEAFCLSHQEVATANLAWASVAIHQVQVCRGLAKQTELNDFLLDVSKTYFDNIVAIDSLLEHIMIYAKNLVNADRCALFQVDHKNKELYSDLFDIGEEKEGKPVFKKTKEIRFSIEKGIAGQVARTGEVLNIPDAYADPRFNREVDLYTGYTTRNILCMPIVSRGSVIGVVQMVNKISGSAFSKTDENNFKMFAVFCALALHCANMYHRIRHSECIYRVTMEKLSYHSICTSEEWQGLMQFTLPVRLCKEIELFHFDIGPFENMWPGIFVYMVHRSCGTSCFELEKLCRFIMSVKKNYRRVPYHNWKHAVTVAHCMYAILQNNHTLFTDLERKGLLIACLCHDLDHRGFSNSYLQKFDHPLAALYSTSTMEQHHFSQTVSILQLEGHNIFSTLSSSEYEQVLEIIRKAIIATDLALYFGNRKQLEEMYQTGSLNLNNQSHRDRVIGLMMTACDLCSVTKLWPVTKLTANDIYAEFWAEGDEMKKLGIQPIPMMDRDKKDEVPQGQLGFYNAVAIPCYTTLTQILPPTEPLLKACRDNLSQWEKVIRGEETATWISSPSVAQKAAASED

Compared with Cc1c(C(F)(F)F)nc2ccc(CCc3nc(N4CCCC4)nn3C)nn12 [Example 1, 3-Methyl-6-(2-(1-methyl-3-(pyrrolidin-1-yl)-1H-1,2,4-triazol-5-yl)ethyl)-2-(trifluoro-methyl)imidazo[1,2-b]pyridazine], Cc1c(C(F)(F)F)nc2ccc(CCc3nc(N4CCCC4)n(C)n3)nn12 [Example 6, 3-Methyl-6-(2-(1-methyl-5-(pyrrolidin-1-yl)-1H-1,2,4-triazol-3-yl)ethyl)-2-(trifluoromethyl)imidazo[1,2-b]pyridazine] is 1.6-fold higher in IC50: 12 nM for the first, 19 nM for the second. The first is the more potent here.

First: Cc1nc2ccc(CCc3nc(N4CCCC4)nn3C)nn2c1C [Example 2, 2,3-Dimethyl-6-(2-(1-methyl-3-(pyrrolidin-1-yl)-1H-1,2,4-triazol-5-yl)ethyl)-imidazo[1,2-b]pyridazine]
Second: Cc1c(C#N)nc2ccc(CCc3nc(N4CCCC4)nn3C)nn12 [Example 5, 3-Methyl-6-[2-(2-methyl-5-pyrrolidin-1-yl-2H-[1,2,4]triazol-3-yl)-ethyl]-imidazo[1,2-b]pyridazine-2-carbonitrile]
The IC50 of the first is 1.9-fold lower: 11 nM for the first, 21 nM for the second. The first is the more potent here.

First: Cc1c(C#N)nc2ccc(/C=C/c3nc(N4CCCC4)nn3C)nn12 [Example 3, 3-Methyl-6-[(E)-2-(2-methyl-5-pyrrolidin-1-yl-2H-[1,2,4]triazol-3-yl)vinyl]-imidazo[1,2-b]pyridazine-2-carbonitrile]
Second: Cc1nc2c(OC(C)C)cc(/C=C/c3nc(N4CCCC4)nn3C)nn2c1C [Example 26, (E)-8-Isopropoxy-2,3-dimethyl-6-(2-(1-methyl-3-(pyrrolidin-1-yl)-1H-1,2,4-triazol-5-yl)vinyl)imidazo[1,2-b]pyridazine]
The IC50 of the first is 10-fold higher: 5 nM for the first, 0.493 nM for the second.

Cc1c(C(F)(F)F)nc2ccc(C#Cc3nc(N4CCCC4)n(C)n3)nn12 [Example 4, 3-Methyl-6-((1-methyl-5-(pyrrolidin-1-yl)-1H-1,2,4-triazol-3-yl)ethynyl)-2-(trifluoromethyl)imidazo[1,2-b]pyridazine] and Cc1c(C(F)F)nc2ccc(C#Cc3nc(N4CCCC4)nn3C)nn12 [Example 7, 2-(Difluoromethyl)-3-methyl-6-((1-methyl-3-(pyrrolidin-1-yl)-1H-1,2,4-triazol-5-yl)ethynyl)imidazo[1,2-b]pyridazine] are within 1.5-fold of each other in IC50: 4 nM for the first, 5 nM for the second.

Compared with Cc1c(C(F)F)nc2ccc(CCc3nc(N4CCCC4)nn3C)nn12 [Example 8, 2-(Difluoromethyl)-3-methyl-6-(2-(1-methyl-3-(pyrrolidin-1-yl)-1H-1,2,4-triazol-5-yl)ethyl)imidazo[1,2-b]pyridazine], Cc1nc2ccc(CCc3nc(N4CCCC4)nn3C)nn2c1CO [Example 21, (2-Methyl-6-(2-(1-methyl-3-(pyrrolidin-1-yl)-1H-1,2,4-triazol-5-yl)ethyl)imidazo[1,2-b]-pyridazin-3-yl)methanol] is 24-fold higher in IC50: 8 nM for the first, 194 nM for the second. The first is the more potent here.

Compared with COc1cc(/C=C/c2nc(N3CCCC3)nn2C)nn2c(C)c(C(F)(F)F)nc12 [Example 9, (E)-8-methoxy-3-methyl-6-(2-(1-methyl-3-(pyrrolidin-1-yl)-1H-1,2,4-triazol-5-yl)vinyl)-2-(trifluoromethyl)imidazo[1,2-b]pyridazine], COc1cc(CCc2nc(N3CCCC3)nn2C)nn2c(C)c(C(F)(F)F)nc12 [Example 10, 8-Methoxy-3-methyl-6-(2-(1-methyl-3-(pyrrolidin-1-yl)-1H-1,2,4-triazol-5-yl)ethyl)-2-(trifluoromethyl)imidazo[1,2-b]pyridazine] is 2-fold higher in IC50: 1 nM for the first, 2 nM for the second.

Going from Cc1nc2c(O)nc(CCc3nc(N4CCCC4)nn3C)nn2c1C [Example 11, 6,7-Dimethyl-2-(2-(1-methyl-3-(pyrrolidin-1-yl)-1H-1,2,4-triazol-5-yl)ethyl)imidazo[1,2-f][1,2,4]triazin-4-ol] to Cc1nc2c(Cl)nc(CCc3nc(N4CCCC4)nn3C)nn2c1C [Example 15, 4-Chloro-6,7-dimethyl-2-(2-(1-methyl-3-(pyrrolidin-1-yl)-1H-1,2,4-triazol-5-yl)ethyl)imidazo[1,2-f][1,2,4]triazine], the IC50 falls from 225 nM to 4 nM (56-fold).

COc1cc(CCc2nc(N3CCCC3)nn2C)nn2c(C)c(C)nc12 [Example 12, 8-Methoxy-2,3-dimethyl-6-(2-(1-methyl-3-(pyrrolidin-1-yl)-1H-1,2,4-triazol-5-yl)ethyl)imidazo[1,2-b]pyridazine] and Cc1nc2c(OC(C)C)cc(CCc3nc(N4CCCC4)nn3C)nn2c1C [Example 27, 8-Isopropoxy-2,3-dimethyl-6-(2-(1-methyl-3-(pyrrolidin-1-yl)-1H-1,2,4-triazol-5-yl)ethyl)imidazo[1,2-b]pyridazine] are the same in IC50: 3 nM for the first, 3 nM for the second.

COc1nc(CCc2nc(N3CCCC3)nn2C)nn2c(C)c(C)nc12 [Example 13, 4-Methoxy-6,7-dimethyl-2-(2-(1-methyl-3-(pyrrolidin-1-yl)-1H-1,2,4-triazol-5-yl)ethyl)imidazo[1,2-f][1,2,4]triazine] and Cc1nc2c(N(C)C)nc(CCc3nc(N4CCCC4)nn3C)nn2c1C [Example 22, N,N,6,7-Tetramethyl-2-(2-(1-methyl-3-(pyrrolidin-1-yl)-1H-1,2,4-triazol-5-yl)ethyl)-imidazo[1,2-f][1,2,4]triazin-4-amine] are the same in IC50: 2 nM for the first, 2 nM for the second.

Going from Cn1nc(N2CCCC2)nc1CCc1ccc2nc3c(n2n1)CCC3 [Example 14, 5-[2-(2-Methyl-5-pyrrolidin-1-yl-2H-[1,2,4]triazol-3-yl)-ethyl]-2,3-dihydro-1H-3b,4,8-triaza-cyclopenta[a]indene] to Cc1nc2c(C)cc(CCc3nc(N4CCCC4)nn3C)nn2c1C [Example 16, 2,3,8-trimethyl-6-(2-(1-methyl-3-(pyrrolidin-1-yl)-1H-1,2,4-triazol-5-yl)ethyl)-imidazo[1,2-b]pyridazine], the IC50 falls from 41 nM to 2 nM (20-fold). The second is the more potent here.

First: Cc1cc2nc(C)c(C)n2nc1C#Cc1nc(N2CCCC2)nn1C [Example 17, 2,3,7-Trimethyl-6-((1-methyl-3-(pyrrolidin-1-yl)-1H-1,2,4-triazol-5-yl)ethynyl)imidazo[1,2-b]pyridazine]
Second: Cc1cc2nc(C)c(C)n2nc1CCc1nc(N2CCCC2)nn1C [Example 18, 2,3,7-Trimethyl-6-(2-(1-methyl-3-(pyrrolidin-1-yl)-1H-1,2,4-triazol-5-yl)ethyl)imidazo[1,2-b]pyridazine]
The IC50 of the first is 200-fold lower: 1 nM for the first, 195 nM for the second.

Compared with Cc1nc2c(N3CCCC3)cc(CCc3nc(N4CCCC4)nn3C)nn2c1C [Example 19, 2,3-Dimethyl-6-(2-(1-methyl-3-(pyrrolidin-1-yl)-1H-1,2,4-triazol-5-yl)ethyl)-8-(pyrro-lidin-1-yl)imidazo[1,2-b]pyridazine], Cc1nc2c(S(C)(=O)=O)cc(CCc3nc(N4CCCC4)nn3C)nn2c1C [Example 33, 2,3-Dimethyl-6-(2-(1-methyl-3-(pyrrolidin-1-yl)-1H-1,2,4-triazol-5-yl)ethyl)-8-(methyl-sulfonyl)imidazo[1,2-b]pyridazine] is 8.2-fold higher in IC50: 5 nM for the first, 41 nM for the second. The first is the more potent here.

Compared with Cc1nc2c(Cl)nc(CCc3nc(N4CCCC4)n(C)n3)nn2c1C [Example 20, 4-Chloro-6,7-dimethyl-2-(2-(1-methyl-5-(pyrrolidin-1-yl)-1H-1,2,4-triazol-3-yl)ethyl)-imidazo[1,2-f][1,2,4]triazine], Cc1nc2c(NC(C)C)nc(CCc3nc(N4CCCC4)nn3C)nn2c1C [Example 31, N-Isopropyl-6,7-dimethyl-2-(2-(1-methyl-3-(pyrrolidin-1-yl)-1H-1,2,4-triazol-5-yl)ethyl)imidazo[1,2-f][1,2,4]triazin-4-amine] is 3.7-fold lower in IC50: 11 nM for the first, 3 nM for the second. The second is the more potent here.

Going from Cc1c(C(F)(F)F)nc2ccc(OCc3nc(N4CCCC4)nn3C)nn12 [Example 23, 3-Methyl-6-((1-methyl-3-(pyrrolidin-1-yl)-1H-1,2,4-triazol-5-yl)methoxy)-2-(trifluoro-methyl)imidazo[1,2-b]pyridazine] to Cc1nc2ccc(OCc3nc(N4CCCC4)nn3C)nn2c1C [Example 30, 2,3-Dimethyl-6-((1-methyl-3-(pyrrolidin-1-yl)-1H-1,2,4-triazol-5-yl)methoxy)imidazo[1,2-b]pyridazine], the IC50 falls from 290 nM to 98 nM (3-fold). The second is the more potent here.

First: Cc1nc2c3c(c(CCc4nc(N5CCCC5)nn4C)nn2c1C)CCCC3 [Example 24, 2,3-Dimethyl-6-(2-(1-methyl-3-(pyrrolidin-1-yl)-1H-1,2,4-triazol-5-yl)ethyl)-7,8,9,10-tetrahydroimidazo[2,1-a]phthalazine]
Second: Cc1nc2ccc(SCc3nc(N4CCCC4)nn3C)nn2c1C [Example 28, 2,3-Dimethyl-6-((1-methyl-3-(pyrrolidin-1-yl)-1H-1,2,4-triazol-5-yl)methylthio)-imidazo[1,2-b]pyridazine]
The IC50 of the first is 95-fold lower: 6 nM for the first, 568 nM for the second. The first is the more potent here.

First: Cc1nc2c(OC(C)C)cc(C#Cc3nc(N4CCCC4)nn3C)nn2c1C [Example 25, 8-Isopropoxy-2,3-dimethyl-6-((1-methyl-3-(pyrrolidin-1-yl)-1H-1,2,4-triazol-5-yl)ethynyl)imidazo[1,2-b]pyridazine]
Second: Cc1nc2c(S(C)(=O)=O)cc(C#Cc3nc(N4CCCC4)nn3C)nn2c1C [Example 29, 2,3-Dimethyl-6-((1-methyl-3-(pyrrolidin-1-yl)-1H-1,2,4-triazol-5-yl)ethynyl)-8-(methylsulfonyl)imidazo[1,2-b]pyridazine]
The IC50 of the first is 5-fold lower: 1 nM for the first, 5 nM for the second.
